Key:
Assay in all cases: relative viability (nuclei count vs DMSO), 5 days (fraction); higher = more cells survive
[1] = compound: Cc1cc(Nc2cc(N3CCN(C)CC3)nc(Sc3ccc(NC(=O)C4CC4)cc3)n2)n[nH]1 [Tozasertib] + Cc1nc(NC(=O)N2CCC[C@H]2C(N)=O)sc1-c1ccnc(C(C)(C)C(F)(F)F)c1 [Alpelisib] (partner 2 µM)
Procedure, shortened: (§1)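 Each reported value is a median over duplicate plates. It expresses relative viability: treated-well nuclei count divided by vehicle-well nuclei count. Lung cancer cell lines in 1536-well plates were dosed by pin tool a day after seeding, alone with one drug or with a fixed anchor-drug dose plus five library-drug doses (not always all listed) in √10 steps, and nuclei were counted after 5 days.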

[2] = compound: Cc1cc(Nc2cc(N3CCN(C)CC3)nc(Sc3ccc(NC(=O)C4CC4)cc3)n2)n[nH]1 [Tozasertib] + C[C@]1(O)C[C@@H](c2nc(-c3ccc4ccc(-c5ccccc5)nc4c3)c3c(N)nccn32)C1 [Linsitinib] (partner 1 µM)
Procedure, shortened: as §1

[3] = compound: Cc1cc(Nc2cc(N3CCN(C)CC3)nc(Sc3ccc(NC(=O)C4CC4)cc3)n2)n[nH]1 [Tozasertib] + CS(=O)(=O)CCNCc1ccc(-c2ccc3ncnc(Nc4ccc(OCc5cccc(F)c5)c(Cl)c4)c3c2)o1 [Lapatinib] (partner 2 µM)
Procedure, shortened: as §1

[4] = compound: Cc1cc(Nc2cc(N3CCN(C)CC3)nc(Sc3ccc(NC(=O)C4CC4)cc3)n2)n[nH]1 [Tozasertib] + NC(=O)Nc1cc(-c2cccc(F)c2)sc1C(=O)N[C@H]1CCCNC1 [AZD7762] (partner 0.2 µM)
Procedure, shortened: as §1

[5] = compound: Cc1cc(Nc2cc(N3CCN(C)CC3)nc(Sc3ccc(NC(=O)C4CC4)cc3)n2)n[nH]1 [Tozasertib] + Cc1nc(Nc2ncc(C(=O)Nc3c(C)cccc3Cl)s2)cc(N2CCN(CCO)CC2)n1 [Dasatinib] (partner 0.075 µM)
Procedure, shortened: as §1

## 201T
[1]; first compound 0.004 µM
  relative viability: 0.993
[1]; first compound 0.01265 µM
  relative viability: 0.968
[1]; first compound 0.04 µM
  relative viability: 1.06
[1]; first compound 0.1265 µM
  relative viability: 1
[2]; first compound 0.004 µM
  relative viability: 1.02
[2]; first compound 0.01265 µM
  relative viability: 0.955
[2]; first compound 0.04 µM
  relative viability: 1.08
[2]; first compound 0.1265 µM
  relative viability: 1.04
[3]; first compound 0.004 µM
  relative viability: 1
[3]; first compound 0.01265 µM
  relative viability: 0.981
[3]; first compound 0.04 µM
  relative viability: 1.05
[3]; first compound 0.1265 µM
  relative viability: 0.884
[4]; first compound 0.004 µM
  relative viability: 0.549
[4]; first compound 0.01265 µM
  relative viability: 0.63
[4]; first compound 0.04 µM
  relative viability: 0.581
[4]; first compound 0.1265 µM
  relative viability: 0.75
[5]; first compound 0.004 µM
  relative viability: 0.593
[5]; first compound 0.01265 µM
  relative viability: 0.503
[5]; first compound 0.04 µM
  relative viability: 0.714
[5]; first compound 0.1265 µM
  relative viability: 0.555

## A549
[1]; first compound 0.004 µM
  relative viability: 0.686
[1]; first compound 0.01265 µM
  relative viability: 0.826
[1]; first compound 0.04 µM
  relative viability: 0.759
[1]; first compound 0.1265 µM
  relative viability: 0.211
[2]; first compound 0.004 µM
  relative viability: 0.461
[2]; first compound 0.01265 µM
  relative viability: 0.511
[2]; first compound 0.04 µM
  relative viability: 0.71
[2]; first compound 0.1265 µM
  relative viability: 0.33
[3]; first compound 0.004 µM
  relative viability: 1.04
[3]; first compound 0.01265 µM
  relative viability: 0.859
[3]; first compound 0.04 µM
  relative viability: 0.835
[3]; first compound 0.1265 µM
  relative viability: 0.0927

## A-427
[1]; first compound 0.004 µM
  relative viability: 1.06
[1]; first compound 0.01265 µM
  relative viability: 1.1
[1]; first compound 0.04 µM
  relative viability: 1.17
[1]; first compound 0.1265 µM
  relative viability: 0.751
[2]; first compound 0.004 µM
  relative viability: 1.16
[2]; first compound 0.01265 µM
  relative viability: 0.996
[2]; first compound 0.04 µM
  relative viability: 1.12
[2]; first compound 0.1265 µM
  relative viability: 0.826
[3]; first compound 0.004 µM
  relative viability: 1.09
[3]; first compound 0.04 µM
  relative viability: 1.04
[3]; first compound 0.1265 µM
  relative viability: 0.824
[4]; first compound 0.004 µM
  relative viability: 0.796
[4]; first compound 0.01265 µM
  relative viability: 0.799
[4]; first compound 0.04 µM
  relative viability: 0.715
[4]; first compound 0.1265 µM
  relative viability: 0.409
[5]; first compound 0.004 µM
  relative viability: 0.774
[5]; first compound 0.01265 µM
  relative viability: 0.692
[5]; first compound 0.04 µM
  relative viability: 0.76
[5]; first compound 0.1265 µM
  relative viability: 0.426

## ABC-1
[1]; first compound 0.004 µM
  relative viability: 0.916
[1]; first compound 0.01265 µM
  relative viability: 1.06
[1]; first compound 0.04 µM
  relative viability: 0.721
[1]; first compound 0.1265 µM
  relative viability: 0.816
[2]; first compound 0.004 µM
  relative viability: 0.831
[2]; first compound 0.04 µM
  relative viability: 0.554
[2]; first compound 0.1265 µM
  relative viability: 0.767
[3]; first compound 0.004 µM
  relative viability: 1.26
[3]; first compound 0.01265 µM
  relative viability: 1.04
[3]; first compound 0.04 µM
  relative viability: 1.13
[3]; first compound 0.1265 µM
  relative viability: 1.24
[4]; first compound 0.004 µM
  relative viability: 1.01
[4]; first compound 0.01265 µM
  relative viability: 0.789
[4]; first compound 0.1265 µM
  relative viability: 1.16
[5]; first compound 0.004 µM
  relative viability: 0.494
[5]; first compound 0.01265 µM
  relative viability: 0.535
[5]; first compound 0.04 µM
  relative viability: 0.577
[5]; first compound 0.1265 µM
  relative viability: 0.258

## BEN
[1]; first compound 0.004 µM
  relative viability: 1.04
[1]; first compound 0.01265 µM
  relative viability: 0.948
[1]; first compound 0.04 µM
  relative viability: 1.14
[1]; first compound 0.1265 µM
  relative viability: 0.931
[2]; first compound 0.004 µM
  relative viability: 1.08
[2]; first compound 0.01265 µM
  relative viability: 0.948
[2]; first compound 0.04 µM
  relative viability: 0.927
[2]; first compound 0.1265 µM
  relative viability: 0.85
[3]; first compound 0.004 µM
  relative viability: 0.73
[3]; first compound 0.01265 µM
  relative viability: 0.886
[3]; first compound 0.04 µM
  relative viability: 0.696
[3]; first compound 0.1265 µM
  relative viability: 0.577
[4]; first compound 0.004 µM
  relative viability: 0.761
[4]; first compound 0.01265 µM
  relative viability: 0.678
[4]; first compound 0.1265 µM
  relative viability: 0.532
[5]; first compound 0.004 µM
  relative viability: 0.372
[5]; first compound 0.01265 µM
  relative viability: 0.354
[5]; first compound 0.04 µM
  relative viability: 0.363
[5]; first compound 0.1265 µM
  relative viability: 0.287

## CAL-12T
[1]; first compound 0.004 µM
  relative viability: 1.31
[1]; first compound 0.01265 µM
  relative viability: 1.23
[1]; first compound 0.04 µM
  relative viability: 1.33
[1]; first compound 0.1265 µM
  relative viability: 1.08
[2]; first compound 0.004 µM
  relative viability: 0.857
[2]; first compound 0.01265 µM
  relative viability: 0.804
[2]; first compound 0.04 µM
  relative viability: 0.793
[2]; first compound 0.1265 µM
  relative viability: 0.64
[3]; first compound 0.004 µM
  relative viability: 0.651
[3]; first compound 0.01265 µM
  relative viability: 0.596
[3]; first compound 0.04 µM
  relative viability: 0.626
[3]; first compound 0.1265 µM
  relative viability: 0.414
[4]; first compound 0.004 µM
  relative viability: 0.563
[4]; first compound 0.01265 µM
  relative viability: 0.553
[4]; first compound 0.04 µM
  relative viability: 0.545
[4]; first compound 0.1265 µM
  relative viability: 0.494
[5]; first compound 0.004 µM
  relative viability: 0.434
[5]; first compound 0.01265 µM
  relative viability: 0.332
[5]; first compound 0.04 µM
  relative viability: 0.404
[5]; first compound 0.1265 µM
  relative viability: 0.151

## COR-L23
[1]; first compound 0.004 µM
  relative viability: 0.827
[1]; first compound 0.01265 µM
  relative viability: 0.763
[1]; first compound 0.04 µM
  relative viability: 0.585
[1]; first compound 0.1265 µM
  relative viability: 0.699
[2]; first compound 0.004 µM
  relative viability: 0.99
[2]; first compound 0.01265 µM
  relative viability: 0.906
[2]; first compound 0.04 µM
  relative viability: 0.846
[2]; first compound 0.1265 µM
  relative viability: 0.39
[3]; first compound 0.004 µM
  relative viability: 1.02
[3]; first compound 0.01265 µM
  relative viability: 0.863
[3]; first compound 0.04 µM
  relative viability: 0.721
[3]; first compound 0.1265 µM
  relative viability: 0.247
[5]; first compound 0.004 µM
  relative viability: 0.521
[5]; first compound 0.01265 µM
  relative viability: 0.547
[5]; first compound 0.04 µM
  relative viability: 0.479
[5]; first compound 0.1265 µM
  relative viability: 0.245

## COR-L 105
[1]; first compound 0.01265 µM
  relative viability: 1.29
[1]; first compound 0.04 µM
  relative viability: 1.32
[1]; first compound 0.1265 µM
  relative viability: 0.739
[2]; first compound 0.004 µM
  relative viability: 1.15
[2]; first compound 0.01265 µM
  relative viability: 1.15
[2]; first compound 0.04 µM
  relative viability: 1.02
[2]; first compound 0.1265 µM
  relative viability: 0.868
[3]; first compound 0.004 µM
  relative viability: 0.358
[3]; first compound 0.01265 µM
  relative viability: 0.365
[3]; first compound 0.04 µM
  relative viability: 0.335
[3]; first compound 0.1265 µM
  relative viability: 0.262
[5]; first compound 0.004 µM
  relative viability: 0.352
[5]; first compound 0.01265 µM
  relative viability: 0.291
[5]; first compound 0.04 µM
  relative viability: 0.32
[5]; first compound 0.1265 µM
  relative viability: 0.214

## ChaGo-K-1
[4]; first compound 0.004 µM
  relative viability: 0.902
[4]; first compound 0.01265 µM
  relative viability: 0.851
[4]; first compound 0.04 µM
  relative viability: 0.859
[4]; first compound 0.1265 µM
  relative viability: 0.576
[5]; first compound 0.004 µM
  relative viability: 0.624
[5]; first compound 0.01265 µM
  relative viability: 0.616
[5]; first compound 0.04 µM
  relative viability: 0.648
[5]; first compound 0.1265 µM
  relative viability: 0.398
